Our source for the Activity values is ChEMBL document CHEMBL3600289, “A double bond-conjugated dimethylnitrobenzene-type photolabile nitric oxide donor with improved two-photon cross section” (Bioorg Med Chem Lett, 2015).

Active and inactive are the calls of the source. The calls are words filed in the database; no cut-off is given here.

A short description of data set [1]: Induction of nitric oxide release in water/DMSO mixture irradiated with 100W Hg lamp at 450 to 480 nm by […] complex-based ESR spin trapping method. The format is physicochemical. To be noted: buffer, 0.48 µM.
Data set [2] is described as follows: Induction of nitric oxide release in water/DMSO mixture irradiated with 100W Hg lamp at 330 to 380 nm at 1 mM by […] complex-based ESR spin trapping method. The format is physicochemical. The note with it: buffer, 0.38 µM.
Data set [3] concerns HCT-116. The experiment in a line: Induction of nitric oxide release in human HCT116 cells at 25 uM incubated for 1 hr by confocal microscopic analysis in absence of irradiation. In kind it is functional, cell-based.
Data set [4] relates to HCT-116. The experiment in a line: Induction of nitric oxide release in human HCT116 cells at 25 uM preincubated for 1 hr followed by irradiation with 950 nm pulse laser for 1 sec by confocal microscopic analysis. The format is functional, cell-based.
A short description of data set [5]: Induction of nitric oxide release in water/DMSO mixture irradiated with 100W Hg lamp at 450 to 480 nm at 1 mM by […] complex-based ESR spin trapping method. The format is physicochemical. The note with it: buffer, 0.48 µM.

Take `Cc1cc(/C=C/c2ccc(C(=O)Nc3ccc(-c4c5ccc(=O)cc-5oc5cc(O)ccc45)c(C(=O)O)c3)cc2)cc(C)c1[N+](=O)[O-]`: the Activity entry in data set [1] is listed as “Not Active”.

Regarding `Cc1cc(/C=C/c2ccc(/C=C/c3ccc(-c4c5ccc(=O)cc-5oc5cc(O)ccc45)c(C(=O)O)c3)cc2)cc(C)c1[N+](=O)[O-]`, the outcome in data set [2] and in data set [5] was Active. The result with HCT-116 [3] was inactive. The outcome in the data set with HCT-116 [4] was Active.
